Read-outs that look alike come from different tables or passages of the source.
Legend:
[1] = test system: phosphorylation of CDK1 at Thr14 in HCC1806 cells; experiment: Cell lysate AlphaLISA assay measuring inhibition of phosphorylation of CDK1 Thr14; assay type: cell-based; details: compounds incubated 4 hours, AlphaLISA SureFire Ultra CDK1 Thr14, read-out: Cellular IC50
Procedure: (§1) Biochemical IC50 values were determined via ADP-Glo™ assay. Cellular IC50 values were determined via AlphaLISA assay.
Cell lysate AlphaLISA® assay measuring inhibition of phosphorvlation of CDK1 Thr14. Inhibition of phosphorylation of CDK1 at Thr14 was determined using AlphaLISAn SureFire® Ultra™ Kit from Perkin Elmer (ALSU-PCDK1-A10K). HCC1806 cells were seeded at 2K cells per well (50 μl/well) in 384-well plates (Corning 3570) and stored overnight at 37° C. and 5% CO2. The following day, the compounds dissolved in DMSO were introduced to the cells and incubated for 4 hours at 37° C. and 5% CO2. The cells were then washed with PBS using Blue® Washer and 10 μl of lysis buffer containing protease inhibitor was added. The plate was placed on an orbital shaker (at 4° C.) for 30 minutes and stored overnight at −80° C. for complete lysing. The next day, the plates were thawed at room temperature for at least 30 min. Reagents were prepared in a dimmed light setting (<100 lumens). The assay was run by first adding 5 μl of the acceptor mix (reaction buffer 1: reaction buffer 2:activation buffer:acceptor beads 47:47:4:2), covering the plate with foil, shaking for 2 minutes, and incubating at RT for 60 minutes. The donor mix (dilution buffer:donor beads 47:3) was then added at 5 μl per well, placed on the shaker for 2 minutes and incubated at RT for 60 minutes before reading the plates on a PHERAstar® plate reader. The results were normalized to DMSO (0% Inhibition) and 3 μM of reference compound.

PKMYT1 = target: T1, PKMYT1 (Homo sapiens, UniProt Q99640); experiment: ADP-Glo PKMYT1 ATP-depletion assay; details: 50 nM PKMYT1, 13.3 nM CDK1, 88 μM ATP, 120 minutes at RT, read-out: Biochemical IC50
T1 construct: PKMYT1 (93 kD, full length, N-terminal GST tag from Signal Chem); GST (N); purchased Signal Chem
T1 sequence (Q99640 1-499): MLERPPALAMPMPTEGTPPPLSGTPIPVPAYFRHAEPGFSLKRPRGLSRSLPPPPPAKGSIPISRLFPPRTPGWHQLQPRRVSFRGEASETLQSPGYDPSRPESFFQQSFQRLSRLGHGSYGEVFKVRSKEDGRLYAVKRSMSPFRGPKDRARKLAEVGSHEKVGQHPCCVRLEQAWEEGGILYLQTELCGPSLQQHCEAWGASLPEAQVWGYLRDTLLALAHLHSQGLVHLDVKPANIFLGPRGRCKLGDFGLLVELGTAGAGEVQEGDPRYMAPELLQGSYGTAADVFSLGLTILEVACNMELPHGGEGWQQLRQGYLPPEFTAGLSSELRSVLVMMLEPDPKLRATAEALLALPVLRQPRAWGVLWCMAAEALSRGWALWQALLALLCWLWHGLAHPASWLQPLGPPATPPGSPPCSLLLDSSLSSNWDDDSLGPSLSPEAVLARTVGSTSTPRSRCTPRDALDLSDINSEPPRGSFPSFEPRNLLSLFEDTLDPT
Procedure: as §1
ADP-Glo™ PKMYT1 ATP-depletion assay. The activity of PKMYT1 is measured using a luciferase-luciferin based ATP detection reaction to quantify ATP depletion resulting from kinase-catalyzed phosphoryl transfer to CDK1 or autophosphorylation of PKMYT1. The ADP generated as a byproduct of the reaction is converted to ATP and used to drive a luciferase reaction. Test compounds were dissolved in DMSO and dispensed into Corning 3824 384-well plates prior to the experiment such that the final DMSO concentration was <10%. To the compounds was added 3 μL of PKMYT1 (93 kD, full length, N-terminal GST tag from Signal Chem). The reaction was started by the addition of 2 μL of CDK1 (58 kDa, full length, N-terminal GST tag from Signal Chem) and ATP in assay buffer (50 mM Hepes, 40 mM NaCl, 10 mM MgCl2, 1 mM DTT, 0.1 mg/mL BSA, 2.5 mM MnCl2). Final assay concentrations were 50 nM PKMYT1, 13.3 nM CDK1, and 88 μM ATP. Plates were centrifuged for 1 minute at 1000 RPM and incubated at RT for 120 minutes. After the incubation period, ADP-Glo™ reagent was added and the plates were incubated for another 40 minutes before finally adding the kinase detection reagent, 30 minutes after the addition, plates were placed on a PHERAstar® plate reader and read using the Luminescence Protocol, integration time at 0.5 seconds.

IC50 ([1]; Homo sapiens, HCC1806, 4 h) [nM] | IC50 (PKMYT1) [nM] | IC50 [1] [nM] | Structure (SMILES)
< 50 | < 50 | – | Cc1ccc(O)c(C)c1-c1c(N)c(C(N)=O)nc2c1c(C(N)=O)nn2C (atropisomer, axis not shown; (M)) [Compound 74, (M)-5-Amino-4-(3-hydroxy-2,6-dimethylphenyl)-1-methyl-1H-pyrazolo[3,4-b]pyridine-3,6-dicarboxamide]
– | 500 to 1000 | 50 to 500 | Cc1c(O)cccc1-c1c(N)c(C(N)=O)nc2c1c(C#N)cn2C (single isomer, unassigned) [Compound 6, (P)-5-amino-3-cyano-4-(3-hydroxy-2-methylphenyl)-1-methyl-1H-pyrrolo[2,3-b]pyridine-6-carboxamide]
< 50 | < 50 | – | Cc1ccc(O)c(C)c1-c1c(N)c(C(N)=O)cc2c1nnn2C(F)F (atropisomer, axis not shown; (P)) [Compound 98, (P)-5-amino-1-(difluoromethyl)-4-(3-hydroxy-2,6-dimethylphenyl)-1H-benzo[d][1,2,3]triazole-6-carboxamide]
50 to 500 | < 50 | – | Cc1ccc(O)c(C)c1-c1cc(C(N)=O)nc2c1c(C#N)c(C)n2C (racemic) [Compound 26, 3-cyano-4-(3-hydroxy-2,6-dimethylphenyl)-1,2-dimethyl-pyrrolo[2,3-b]pyridine-6-carboxamide]
≥ 5000 | 50 to 500 | – | Cc1cn2cc(C(N)=O)c(N)c(-c3cccc(O)c3C)c2n1 [Compound 47, 7-Amino-8-(3-hydroxy-2-methylphenyl)-2-methylimidazo[1,2-a]pyridine-6-carboxamide]
50 to 500 | < 50 | – | Cc1c(O)cccc1-c1c(N)c(C(N)=O)nc2c1c(C#N)nn2C (racemic) [Compound 54, 5-Amino-3-cyano-4-(3-hydroxy-2-methylphenyl)-1-methyl-1H-pyrazolo[3,4-b]pyridine-6-carboxamide]
1000 to 5000 | 50 to 500 | – | Cc1ccc(O)c(C)c1-c1c(N)c(C(N)=O)cn2ccnc12 [Compound 46, 7-amino-8-(3-hydroxy-2,6-dimethylphenyl)imidazo[1,2-a]pyridine-6-carboxamide]
50 to 500 | < 50 | – | Cc1c(O)cccc1-c1c(N)c(C(N)=O)nc2c1c(C#N)c(C)n2C [Compound 9, 5-amino-3-cyano-4-(3-hydroxy-2-methylphenyl)-1,2-dimethyl-1H-pyrrolo[2,3-b]pyridine-6-carboxamide]
< 50 | < 50 | – | Cc1c(O)cccc1-c1c(N)c(C(N)=O)nc2c1c(C#N)cn2C (racemic) [Compound 4, 5-Amino-3-cyano-4-(3-hydroxy-2-methylphenyl)-1-methyl-1H-pyrrolo[2,3-b]pyridine-6-carboxamide]
< 50 | < 50 | – | Cc1ccc(O)c(C)c1-c1c(N)c(C(N)=O)nc2c1ncn2C(F)F (atropisomer, axis not shown; (P)) [Compound 72, (P)-6-Amino-3-(difluoromethyl)-7-(3-hydroxy-2,6-dimethylphenyl)-3H-imidazo[4,5-b]pyridine-5-carboxamide]
≥ 5000 | ≥ 5000 | – | Cc1ccc(O)c(C)c1-c1cc(C(N)=O)cc2cnn(C)c12 [Compound 40, 7-(3-hydroxy-2,6-dimethylphenyl)-1-methyl-indazole-5-carboxamide]
< 50 | < 50 | – | CCn1cc(C#N)c2c(-c3c(C)ccc(O)c3C)cc(C(N)=O)nc21 (single isomer, unassigned) [Compound 79]
< 50 | < 50 | – | Cc1ccc(O)c(C)c1-c1c(N)c(C(N)=O)cc2c1nc(C(F)F)n2C(F)F (atropisomer, axis not shown; (P)) [Compound 94, (P)-6-amino-2,3-bis(difluoromethyl)-7-(3-hydroxy-2,6-dimethyl-phenyl)benzimidazole-5-carboxamide]
< 50 | < 50 | – | Cc1ccc(O)c(C)c1-c1c(N)c(C(N)=O)nc2c1ncn2CC(F)(F)F (atropisomer, axis not shown; (P)) [Compound 86, (P)-6-amino-7-(3-hydroxy-2,6-dimethylphenyl)-3-(2,2,2-trifluoroethyl)-3H-imidazo[4,5-b]pyridine-5-carboxamide]
≥ 5000 | 1000 to 5000 | – | Cc1ccc(O)c(C)c1-c1cc(C(N)=O)cc2nn(C)cc12 [Compound 36, 4-(3-hydroxy-2,6-dimethylphenyl)-2-methyl-indazole-6-carboxamide]
≥ 5000 | ≥ 5000 | – | Cc1c(O)cccc1-c1c(N)c(C(N)=O)cn2ccnc12 (single isomer, unassigned) [Compound 45]
≥ 5000 | 500 to 1000 | – | Cc1c(O)cccc1-c1c(N)c(C(N)=O)cn2c(C)nnc12 (racemic) [Compound 51, 7-Amino-8-(3-hydroxy-2-methylphenyl)-3-methyl-[1,2,4]triazolo[4,3-a]pyridine-6-carboxamide]
1000 to 5000 | ≥ 5000 | – | CNC(=O)c1cc(-c2c(C)ccc(O)c2C)c2[nH]ncc2c1 [Compound 38]
< 50 | < 50 | – | Cc1ccc(O)c(C)c1-c1c(N)c(C(N)=O)cc2c1ncn2C(F)F (atropisomer, axis not shown; (P)) [Compound 85, (P)-5-amino-1-(difluoromethyl)-4-(3-hydroxy-2,6-dimethylphenyl)-1H-benzo[d]imidazole-6-carboxamide]
– | < 50 | 50 to 500 | Cc1c(O)cccc1-c1c(N)c(C(N)=O)nc2c1c(C#N)nn2C (single isomer, unassigned) [Compound 58, (M)-5-Amino-3-cyano-4-(3-hydroxy-2-methylphenyl)-1-methyl-1H-pyrazolo[3,4-b]pyridine-6-carboxamide]
1000 to 5000 | 1000 to 5000 | – | Cc1ccc(O)c(C)c1-c1cc(C(N)=O)cn2ccnc12 [Compound 42, 8-(3-hydroxy-2,6-dimethylphenyl)imidazo[1,2-a]pyridine-6-carboxamide]
1000 to 5000 | 50 to 500 | – | Cc1ccc(O)c(C)c1-c1cc(C(N)=O)nc2c1c(Cl)cn2C (racemic) [Compound 30, 3-chloro-4-(3-hydroxy-2,6-dimethylphenyl)-1-methyl-1H-pyrrolo[2,3-b]pyridine-6-carboxamide]
< 50 | < 50 | – | CCn1cc(C#N)c2c(-c3cccc(O)c3C)c(N)c(C(N)=O)nc21 (atropisomer, axis not shown; (M)) [Compound 92, (M)-5-amino-3-cyano-1-ethyl-4-(3-hydroxy-2-methylphenyl)-1H-pyrrolo[2,3-b]pyridine-6-carboxamide]
50 to 500 | < 50 | – | Cn1cc(C#N)c2c(-c3cccc(O)c3)c(N)c(C(N)=O)nc21 [Compound 7, 5-Amino-3-cyano-4-(3-hydroxyphenyl)-1-methyl-1H-pyrrolo[2,3-b]pyridine-6-carboxamide]
< 50 | < 50 | – | CCn1cc(C#N)c2c(-c3c(C)ccc(O)c3C)cc(C(N)=O)nc21 [Compound 29, 3-cyano-1-ethyl-4-(3-hydroxy-2,6-dimethylphenyl)pyrrolo[2,3-b]pyridine-6-carboxamide]
